This assay has as its target T1, B-cell receptor CD22 (Homo sapiens, UniProt P20273).
T1 sequence (P20273 whole entry): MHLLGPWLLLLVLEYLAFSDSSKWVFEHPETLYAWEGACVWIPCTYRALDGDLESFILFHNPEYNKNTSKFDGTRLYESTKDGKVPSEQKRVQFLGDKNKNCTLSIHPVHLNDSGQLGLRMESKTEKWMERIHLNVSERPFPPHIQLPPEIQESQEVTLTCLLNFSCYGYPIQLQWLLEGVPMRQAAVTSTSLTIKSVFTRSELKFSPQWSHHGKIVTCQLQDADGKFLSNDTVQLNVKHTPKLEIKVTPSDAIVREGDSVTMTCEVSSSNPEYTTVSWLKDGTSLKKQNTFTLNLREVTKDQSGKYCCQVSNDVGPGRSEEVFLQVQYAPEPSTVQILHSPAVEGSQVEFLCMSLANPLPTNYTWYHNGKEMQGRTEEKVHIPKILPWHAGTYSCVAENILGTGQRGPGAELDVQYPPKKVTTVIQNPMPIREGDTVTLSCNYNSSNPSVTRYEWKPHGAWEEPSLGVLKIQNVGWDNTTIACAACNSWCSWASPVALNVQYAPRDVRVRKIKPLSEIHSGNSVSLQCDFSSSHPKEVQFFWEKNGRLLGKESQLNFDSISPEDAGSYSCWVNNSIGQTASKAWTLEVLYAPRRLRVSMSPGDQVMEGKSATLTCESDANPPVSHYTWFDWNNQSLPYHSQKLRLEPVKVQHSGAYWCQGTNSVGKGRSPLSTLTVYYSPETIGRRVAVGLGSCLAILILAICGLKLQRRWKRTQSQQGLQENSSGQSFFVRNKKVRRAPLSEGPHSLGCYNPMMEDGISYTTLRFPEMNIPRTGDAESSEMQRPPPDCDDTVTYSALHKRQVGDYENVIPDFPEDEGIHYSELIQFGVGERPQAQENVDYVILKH
Put plainly: Binding affinity to human SIGLEC2 by saturation transfer difference-titration assay.

The text below walks through data of ChEMBL document CHEMBL1165912, “Synthesis and binding analysis of unique AG2 pentasaccharide to human Siglec-2 using NMR techniques” (Bioorg Med Chem, 2010).

Each structure is given as a SMILES string.

As a reminder, the Kd is the concentration at which binding is half-saturated. A higher Kd goes with lower affinity. Take `CC(=O)N[C@H]1[C@@H]([C@H](O)[C@H](O)CO)O[C@@](O[C@H]2[C@@H](O)[C@@H](CO)O[C@@H](O[C@H]3[C@H](O)[C@@H](O)[C@H](OCC[Si](C)(C)C)O[C@@H]3CO)[C@@H]2O)(C(=O)O)C[C@@H]1O[C@H]1O[C@H](CO)[C@H](O)[C@H](O[C@@H]2O[C@@H]([C@H](O)CO)[C@H](O)[C@H]2O)[C@H]1O` (stereo in doubt): the Kd was 2000 µM.
